Assay results reported in PMC12063043, “Exploring Tyramine's Role in the Formation of Supramolecular Adducts with Nonsteroidal Anti‐Inflammatory Drugs” (Chemistry (Weinheim an Der Bergstrasse, Germany), 2025).
In brackets after ≈: the same amount, converted by molar mass.

Tests used:
[1] = pKa of the co-former TYA and the APIs, and ΔpKa rule; assay type: physicochemical; conditions: heading: ΔpKa [= pKa – pKa]; for the adduct of the API (acid) with TYA (base)
[2] = Aqueous solubility tests by solution 1H NMR; conditions: for solubility at 3 days: deionized water, water, thermodynamic from solid
[3] = ref PubChem; cited from earlier work

Row | Structure (SMILES) | ΔpKa [1] | solubility at 3 days [2] | Increase in aqueous solubility of adduct versus pure API ([2]; aqueous solution, adduct versus pure API) | Aqueous solubility ([2]; deionized H2O, stirred 3 days, filtered, 1H NMR at 298 K with TSP internal standard, concentration of the drug in solution, average of three measurements ± standard deviation) | pKa [3]
1 | CC(C(=O)O)c1ccc(-c2ccccc2)c(F)c1 (racemic) [FLU, (±)‐2‐(2‐fluorobiphenyl‐4‐yl)propionic acid] | 5.44 | 19 ± 2 µg/mL (≈ 77.8 µM) |  |  | 
2 | O=C(O)c1cc(-c2ccc(F)cc2F)ccc1O [DIF, 2′,4′‐difluoro‐4‐hydroxy‐[1,1′‐biphenyl]‐3‐carboxylic acid] | 6.36 | 28 ± 2 µg/mL (≈ 112 µM) |  |  | 
3 | NCCc1ccc(O)cc1.O=C(O)c1cc(-c2ccc(F)cc2F)ccc1O [DIF-TYA Form II] |  |  | 17 fold | 473 ± 79 µg/mL | 
4 | NCCc1ccc(O)cc1 [TYA, 4‐(2‐aminoethyl)phenol] |  |  |  |  | 9.66^[ ^a ^]
